What was measured:
Assay in all cases: relative viability (nuclei count vs DMSO), 5 days (fraction); higher = more cells survive
RU-SKI 43 + Palbociclib = compound: CC[C@@H](C)CNCC(=O)N1CCC2=C([C@@H]1COC3=CC=CC(=C3)C)C=CS2 [RU-SKI 43] + CC(=O)c1c(C)c2cnc(Nc3ccc(N4CCNCC4)cn3)nc2n(C2CCCC2)c1=O [Palbociclib] (partner 0.5 µM)
Summary of the method: (§1)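 Cells from lung cancer lines were seeded into 1536-well plates and, one day later, dosed by pin tool. Treatments were either a single drug or a fixed dose of an anchor drug with five library-drug doses (not always all listed) in √10 steps. After 5 days, nuclei were stained in a one-step fixation (final 0.05% Triton X-100, 1% formaldehyde, 1 ug/ml Hoechst) and counted on 4× images, and relative viability is the treated-to-vehicle nuclei ratio, as the median of duplicate plates.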

RU-SKI 43 + Phenformin = compound: CC[C@@H](C)CNCC(=O)N1CCC2=C([C@@H]1COC3=CC=CC(=C3)C)C=CS2 [RU-SKI 43] + N=C(N)NC(=N)NCCc1ccccc1 [Phenformin] (partner 250 µM)
Summary of the method: as §1

Irinotecan + Crizotinib = compound: CCc1c2c(nc3ccc(OC(=O)N4CCC(N5CCCCC5)CC4)cc13)-c1cc3c(c(=O)n1C2)COC(=O)[C@]3(O)CC [Irinotecan] + C[C@@H](Oc1cc(-c2cnn(C3CCNCC3)c2)cnc1N)c1c(Cl)ccc(F)c1Cl [Crizotinib] (partner 1 µM)
Summary of the method: as §1

MK-8033 + Bortezomib = compound: Cn1cc(-c2cnc3ccc4ccc(CS(=O)(=O)NCc5ccccn5)cc4c(=O)c3c2)cn1 [MK-8033] + CC(C)C[C@H](NC(=O)[C@H](Cc1ccccc1)NC(=O)c1cnccn1)B(O)O [Bortezomib] (partner 0.002 µM)
Summary of the method: as §1

Row | Cell Line | relative viability (RU-SKI 43 + Palbociclib; first compound 0.1 µM) | relative viability (RU-SKI 43 + Palbociclib; first compound 0.3162 µM) | relative viability (RU-SKI 43 + Palbociclib; first compound 1 µM) | relative viability (RU-SKI 43 + Palbociclib; first compound 3.162 µM) | relative viability (RU-SKI 43 + Palbociclib; first compound 10 µM) | relative viability (RU-SKI 43 + Phenformin; first compound 0.1 µM) | relative viability (RU-SKI 43 + Phenformin; first compound 0.3162 µM) | relative viability (RU-SKI 43 + Phenformin; first compound 1 µM) | relative viability (RU-SKI 43 + Phenformin; first compound 3.162 µM) | relative viability (RU-SKI 43 + Phenformin; first compound 10 µM) | relative viability (Irinotecan + Crizotinib; first compound 0.6325 µM) | relative viability (Irinotecan + Crizotinib; first compound 2 µM) | relative viability (Irinotecan + Crizotinib; first compound 6.325 µM) | relative viability (Irinotecan + Crizotinib; first compound 20 µM) | relative viability (MK-8033 + Bortezomib; first compound 0.02 µM) | relative viability (MK-8033 + Bortezomib; first compound 0.2 µM) | relative viability (MK-8033 + Bortezomib; first compound 0.6325 µM) | relative viability (MK-8033 + Bortezomib; first compound 2 µM) | relative viability (MK-8033 + Bortezomib; first compound 0.06325 µM)
1 | SW 1573 | 0.37 | 0.453 | 0.397 | 0.375 | 0.283 | 0.432 | 0.35 | 0.42 | 0.381 | 0.31 | 0.626 | 0.43 | 0.189 | 0.197 | 1.08 | 0.902 | 0.988 | 1.05 | 
2 | HCC-15 | 0.706 | 0.883 | 0.76 | 0.753 | 0.665 | 0.49 | 0.53 | 0.55 | 0.511 | 0.521 | 0.479 | 0.319 | 0.158 | 0.18 | 1.04 | 0.99 | 1.05 | 0.952 | 1.01
3 | NCI-H1666 | 0.66 | 0.63 | 0.707 | 0.609 | 0.64 | 0.58 | 0.574 | 0.518 | 0.519 | 0.53 | 0.617 | 0.464 | 0.47 | 0.357 | 0.766 | 0.886 | 0.822 | 0.806 | 0.722
4 | NCI-H460 | 0.222 | 0.165 | 0.183 | 0.199 | 0.128 | 0.534 | 0.973 | 0.788 | 0.575 | 0.467 | 0.709 | 0.239 | 0.0835 | 0.0573 | 0.908 | 1.06 | 1.28 | 1.17 | 1.08
5 | NCI-H1792 | 0.692 | 0.764 | 0.685 | 0.698 | 0.662 | 0.267 |  | 0.4 |  | 0.227 | 0.918 | 1.05 | 0.536 | 0.239 | 1 | 0.966 | 0.525 | 0.954 | 0.96
6 | NCI-H2087 | 0.253 | 0.215 | 0.288 | 0.238 | 0.19 | 0.46 | 0.552 | 0.477 | 0.526 | 0.406 | 0.476 | 0.396 | 0.259 | 0.203 | 0.877 | 0.828 | 0.687 | 0.829 | 0.77
7 | EKVX | 0.332 | 0.319 | 0.336 | 0.379 | 0.353 | 0.221 | 0.197 | 0.261 | 0.235 | 0.193 | 1.08 | 0.81 | 0.244 | 0.232 | 1 | 0.968 | 0.712 | 1.03 | 0.995
8 | NCI-H1355 | 0.405 | 0.381 | 0.358 | 0.42 | 0.389 | 0.49 | 0.446 | 0.475 | 0.472 | 0.438 | 0.896 | 0.407 | 0.234 | 0.233 | 1.25 | 1.14 | 1.21 | 1.15 | 1.12
9 | NCI-H661 | 0.384 | 0.398 | 0.401 | 0.348 | 0.344 | 0.288 | 0.281 | 0.324 | 0.281 | 0.267 | 0.923 | 0.842 |  | 0.517 | 0.764 | 0.647 | 0.907 | 0.858 | 0.685

— the supplement of paper PMC10307832
